# Tested on: panel of nearly 500 cancer cell lines
# Experiment: Cancer Cell Line Encyclopedia profiling, 3-day CellTiter-Glo
# Type: cell-based
# Set-up: Amax: unit not given here
smiles,measurement,setting,value
"CC(=O)c1c(C)c2cnc(Nc3ccc(N4CCNCC4)cn3)nc2n(C2CCCC2)c1=O [Palbociclib, reference compound]",Amax,769p (kidney),-52.63
same,Amax,8305c (thyroid),-51.0145
same,Amax,8505c (thyroid),-0.08134
same,EC50,COV318,> 8 µM
same,EC50,COV504,> 8 µM
same,EC50,GLC82,0.00254 µM
same,EC50,HCC15,> 8 µM
same,EC50,HEC-251,> 8 µM
same,EC50,HEY A8,0.947 µM
same,EC50,"Homo sapiens, 22Rv1",1.22 µM
same,EC50,"Homo sapiens, 639-V",> 8 µM
same,EC50,"Homo sapiens, 769-P",> 8 µM
same,EC50,"Homo sapiens, 8305C",0.576 µM
same,EC50,"Homo sapiens, 8505C",> 8 µM
same,EC50,"Homo sapiens, A 172",> 8 µM
same,EC50,"Homo sapiens, A204",0.407 µM
same,EC50,"Homo sapiens, A253",> 8 µM
same,EC50,"Homo sapiens, A549",1.14 µM
same,EC50,"Homo sapiens, A673",> 8 µM
same,EC50,"Homo sapiens, A2058",> 8 µM
same,EC50,"Homo sapiens, A2780",1.9 µM
same,EC50,"Homo sapiens, A-375",2.72 µM
same,EC50,"Homo sapiens, AMO1",> 8 µM
same,EC50,"Homo sapiens, AN3-CA",5.91 µM
same,EC50,"Homo sapiens, ASPC1",> 8 µM
same,EC50,"Homo sapiens, AU565",0.993 µM
same,EC50,"Homo sapiens, AZ-521",> 8 µM
same,EC50,"Homo sapiens, BFTC-909",> 8 µM
same,EC50,"Homo sapiens, BGC-823",> 8 µM
same,EC50,"Homo sapiens, BL-41",> 8 µM
same,EC50,"Homo sapiens, BT-20",> 8 µM
same,EC50,"Homo sapiens, BT-474",2.09 µM
same,EC50,"Homo sapiens, BT-549",> 8 µM
same,EC50,"Homo sapiens, C2BBe1",1.73 µM
same,EC50,"Homo sapiens, CAKI-2",> 8 µM
same,EC50,"Homo sapiens, CAL-27",> 8 µM
same,EC50,"Homo sapiens, CAL-85-1",> 8 µM
same,EC50,"Homo sapiens, CAMA-1",> 8 µM
same,EC50,"Homo sapiens, CHL-1",> 8 µM
same,EC50,"Homo sapiens, COLO 201",0.989 µM
same,EC50,"Homo sapiens, COLO 205",1.71 µM
same,EC50,"Homo sapiens, COLO 320",> 8 µM
same,EC50,"Homo sapiens, COLO-679",> 8 µM
same,EC50,"Homo sapiens, COR-L23",> 8 µM
same,EC50,"Homo sapiens, Calu-1",> 8 µM
same,EC50,"Homo sapiens, Calu-3",> 8 µM
same,EC50,"Homo sapiens, Capan-2",> 8 µM
same,EC50,"Homo sapiens, DBTRG-05MG",> 8 µM
same,EC50,"Homo sapiens, DMS-114",0.957 µM
same,EC50,"Homo sapiens, DOV13",> 8 µM
same,EC50,"Homo sapiens, DU-145",> 8 µM
same,EC50,"Homo sapiens, Daoy",> 8 µM
same,EC50,"Homo sapiens, Detroit 562",1.94 µM
same,EC50,"Homo sapiens, EBC-1",0.242 µM
same,EC50,"Homo sapiens, EFE-184",> 8 µM
same,EC50,"Homo sapiens, EFM-19",0.565 µM
same,EC50,"Homo sapiens, EFO-21",> 8 µM
same,EC50,"Homo sapiens, EFO-27",> 8 µM
same,EC50,"Homo sapiens, FaDu",2.3 µM
same,EC50,"Homo sapiens, G-361",> 8 µM
same,EC50,"Homo sapiens, G-401",0.644 µM
same,EC50,"Homo sapiens, GCIY",> 8 µM
same,EC50,"Homo sapiens, GMS-10",2.8 µM
same,EC50,"Homo sapiens, HCC70",> 8 µM
same,EC50,"Homo sapiens, HCC78",> 8 µM
same,EC50,"Homo sapiens, HCC1187",> 8 µM
same,EC50,"Homo sapiens, HCC1569",> 8 µM
same,EC50,"Homo sapiens, HCC1806",> 8 µM
same,EC50,"Homo sapiens, HCC1954",0.597 µM
same,EC50,"Homo sapiens, HCC2935",> 8 µM
same,EC50,"Homo sapiens, HCC4006",0.73 µM
same,EC50,"Homo sapiens, HCT-15",> 8 µM
same,EC50,"Homo sapiens, HCT-116",> 8 µM
same,EC50,"Homo sapiens, HEC-1-A",0.764 µM
same,EC50,"Homo sapiens, HEC-1B",2.77 µM
same,EC50,"Homo sapiens, HEL 92.1.7",> 8 µM
same,EC50,"Homo sapiens, HGC-27",0.539 µM
same,EC50,"Homo sapiens, HMCB",> 8 µM
same,EC50,"Homo sapiens, HPAC",0.69 µM
same,EC50,"Homo sapiens, HSC-2",> 8 µM
same,EC50,"Homo sapiens, HT1197",> 8 µM
same,EC50,"Homo sapiens, HT-29",0.557 µM
same,EC50,"Homo sapiens, HT-144",> 8 µM
same,EC50,"Homo sapiens, HT-1080",> 8 µM
same,EC50,"Homo sapiens, HT-1376",> 8 µM
same,EC50,"Homo sapiens, HepG2",0.819 µM
same,EC50,"Homo sapiens, Hs 294T",> 8 µM
same,EC50,"Homo sapiens, Hs 683",3.62 µM
same,EC50,"Homo sapiens, Hs 695T",> 8 µM
same,EC50,"Homo sapiens, Hs746T",0.231 µM
same,EC50,"Homo sapiens, Hs-578T",> 8 µM
same,EC50,"Homo sapiens, HuCCT-1",> 8 µM
same,EC50,"Homo sapiens, HuH-1",1.38 µM
same,EC50,"Homo sapiens, HuP-T3",1.91 µM
same,EC50,"Homo sapiens, HuP-T4",> 8 µM
same,EC50,"Homo sapiens, HuT78",> 8 µM
same,EC50,"Homo sapiens, IGR-37",> 8 µM
same,EC50,"Homo sapiens, IGROV-1",> 8 µM
same,EC50,"Homo sapiens, IMR-32",0.69 µM
same,EC50,"Homo sapiens, IPC-298",> 8 µM
same,EC50,"Homo sapiens, KALS-1",> 8 µM
same,EC50,"Homo sapiens, KARPAS-299",> 8 µM
same,EC50,"Homo sapiens, KARPAS-422",> 8 µM
same,EC50,"Homo sapiens, KMS-12-BM",> 8 µM
same,EC50,"Homo sapiens, KNS-42",> 8 µM
same,EC50,"Homo sapiens, KU812",> 8 µM
same,EC50,"Homo sapiens, KYSE-30",> 8 µM
same,EC50,"Homo sapiens, KYSE-410",> 8 µM
same,EC50,"Homo sapiens, KYSE-520",> 8 µM
same,EC50,"Homo sapiens, L-363",0.804 µM
same,EC50,"Homo sapiens, LCLC-103H",> 8 µM
same,EC50,"Homo sapiens, LN-18",> 8 µM
same,EC50,"Homo sapiens, LN-229",1.48 µM
same,EC50,"Homo sapiens, LOX IMVI",> 8 µM
same,EC50,"Homo sapiens, LS-123",> 8 µM
same,EC50,"Homo sapiens, LS-513",> 8 µM
same,EC50,"Homo sapiens, Lu-99",1 µM
same,EC50,"Homo sapiens, M059J",> 8 µM
same,EC50,"Homo sapiens, MC116",> 8 µM
same,EC50,"Homo sapiens, MCF7",> 8 µM
same,EC50,"Homo sapiens, MDA-MB-157",> 8 µM
same,EC50,"Homo sapiens, MDA-MB-175-VII",> 8 µM
same,EC50,"Homo sapiens, MDA-MB-415",6.74 µM
same,EC50,"Homo sapiens, MDA-MB-436",> 8 µM
same,EC50,"Homo sapiens, MDA-MB-453",3.41 µM
same,EC50,"Homo sapiens, MDA-MB-468",> 8 µM
same,EC50,"Homo sapiens, MEG-01",> 8 µM
same,EC50,"Homo sapiens, MES-SA",0.795 µM
same,EC50,"Homo sapiens, MFE-280",> 8 µM
same,EC50,"Homo sapiens, MG-63",0.532 µM
same,EC50,"Homo sapiens, MIA PaCa-2",> 8 µM
same,EC50,"Homo sapiens, MINO",0.489 µM
same,EC50,"Homo sapiens, MKN-7",> 8 µM
same,EC50,"Homo sapiens, MKN-45",> 8 µM
same,EC50,"Homo sapiens, MKN-74",> 8 µM
same,EC50,"Homo sapiens, MSTO-211H",> 8 µM
same,EC50,"Homo sapiens, Malme-3M",0.714 µM
same,EC50,"Homo sapiens, NCI-H23",> 8 µM
same,EC50,"Homo sapiens, NCI-H28",1.98 µM
same,EC50,"Homo sapiens, NCI-H211",0.877 µM
same,EC50,"Homo sapiens, NCI-H226",> 8 µM
same,EC50,"Homo sapiens, NCI-H358",1.49 µM
same,EC50,"Homo sapiens, NCI-H441",1.35 µM
same,EC50,"Homo sapiens, NCI-H520",0.706 µM
same,EC50,"Homo sapiens, NCI-H522",> 8 µM
same,EC50,"Homo sapiens, NCI-H647",> 8 µM
same,EC50,"Homo sapiens, NCI-H650",> 8 µM
same,EC50,"Homo sapiens, NCI-H661",> 8 µM
same,EC50,"Homo sapiens, NCI-H727",> 8 µM
same,EC50,"Homo sapiens, NCI-H747",3.94 µM
same,EC50,"Homo sapiens, NCI-H810",> 8 µM
same,EC50,"Homo sapiens, NCI-H1048",> 8 µM
same,EC50,"Homo sapiens, NCI-H1092",> 8 µM
same,EC50,"Homo sapiens, NCI-H1355",1.06 µM
same,EC50,"Homo sapiens, NCI-H1373",> 8 µM
same,EC50,"Homo sapiens, NCI-H1563",> 8 µM
same,EC50,"Homo sapiens, NCI-H1573",1.03 µM
same,EC50,"Homo sapiens, NCI-H1581",> 8 µM
same,EC50,"Homo sapiens, NCI-H1648",> 8 µM
same,EC50,"Homo sapiens, NCI-H1650",2.37 µM
same,EC50,"Homo sapiens, NCI-H1651",2.52 µM
same,EC50,"Homo sapiens, NCI-H1666",> 8 µM
same,EC50,"Homo sapiens, NCI-H1693",> 8 µM
same,EC50,"Homo sapiens, NCI-H1694",> 8 µM
same,EC50,"Homo sapiens, NCI-H1792",1.5 µM
same,EC50,"Homo sapiens, NCI-H1793",0.881 µM
same,EC50,"Homo sapiens, NCI-H1944",2.85 µM
same,EC50,"Homo sapiens, NCI-H1975",> 8 µM
same,EC50,"Homo sapiens, NCI-H2009",> 8 µM
same,EC50,"Homo sapiens, NCI-H2030",> 8 µM
same,EC50,"Homo sapiens, NCI-H2052",0.528 µM
same,EC50,"Homo sapiens, NCI-H2087",0.238 µM
same,EC50,"Homo sapiens, NCI-H2122",0.167 µM
same,EC50,"Homo sapiens, NCI-H2170",1.54 µM
same,EC50,"Homo sapiens, NCI-H2228",> 8 µM
same,EC50,"Homo sapiens, NCI-H2444",> 8 µM
same,EC50,"Homo sapiens, NCI-H2452",> 8 µM
same,EC50,"Homo sapiens, NCI-H3255",> 8 µM
same,EC50,"Homo sapiens, NCI-N87",> 8 µM
same,EC50,"Homo sapiens, NUGC-3",0.178 µM
same,EC50,"Homo sapiens, NUGC-4",0.715 µM
same,EC50,"Homo sapiens, OC-314",> 8 µM
same,EC50,"Homo sapiens, OCI-AML2",1.18 µM
same,EC50,"Homo sapiens, OE33",2.02 µM
same,EC50,"Homo sapiens, ONS-76",1.36 µM
same,EC50,"Homo sapiens, OV-90",> 8 µM
same,EC50,"Homo sapiens, OVCAR-3",> 8 µM
same,EC50,"Homo sapiens, OVCAR-4",> 8 µM
same,EC50,"Homo sapiens, OVCAR-8",> 8 µM
same,EC50,"Homo sapiens, OVSAHO",0.613 µM
